Experiment: Saturated aqueous sulfasalazine solution
Assay type: physicochemical
Details: in H2O
Method: Sulfasalazine-Loaded MSN-TA Samples: A saturated aqueous sulfasalazine solution was prepared by dissolving 0.5 g of sulfasalazine in 1 L of H2O, stirred for 6 h, and filtered through a […] cellulose acetate membrane to remove the residual solids. […] Sulfasalazine was adsorbed onto MSN-TA samples by adding 10 mg of MSN-TA samples into 10 mL of the above saturated sulfasalazine solution. The mixture was stirred at 800 rpm for 4 h. The particles were then washed with deionized water and centrifuged for 20 min at 12 000 rpm. The supernatant was analyzed with a UV-Vis spectrometer. The amount of Sulfasalazine adsorbed onto nanoparticles was determined by measuring the decrease in absorption at 360 nm. The loading percentage of sulfasalazine onto MSN-TA-4 was about 1.7%.

- pH of saturated sulfasalazine solution: 5.4
Structure (SMILES): O=C(O)c1cc(/N=N/c2ccc(S(=O)(=O)Nc3ccccn3)cc2)ccc1O [sulfasalazine]

— patent US8252337B2, “Charged mesoporous silica nanoparticle-based drug delivery system for controlled release and enhanced bioavailability” (National Health Research Institutes, priority 2008, dated 2012)
